Measured values as given in patent US20090123389A1, “Methods for modulating Th17 cell development in the treatment and prevention of cellulite” (priority 2007, published 2009).

What was measured:
CD4+ CD25− T cells = assay: Quantitative real-time PCR of AAR-associated genes in activated T cells; format: cell-based, mouse; conditions: 10 nM HF, within 4 hours of T cell activation
Description: FIG. 12C is a graph depicting the results of quantitative real-time PCR performed on cDNA generated from resting naïve T cells (TN) or T cells activated for 4 hours in the presence of 10 nM MAZ1310 or 10 nM HF. Asns, Gpt2 or eIF4Ebp1 mRNA expression was normalized to Hprt levels and data are presented as mean values±SD in duplicate samples.
Quantitative real-time PCR: T cells were activated as described above, collected at the indicated times and pellets were flash-frozen in liquid nitrogen. Total RNA was obtained by RNeasy (Quiagen, Valencia, Calif.) column purification per manufacturers instructions. RORγt expression was determined after reverse transcription using the message sensor kit (Ambion, Austin, Tex.) per manufacturers instructions and taqman primers and probe as described elsewhere (I. Ivanov, et al., Cell 126, 1121, 2006). Sybrgreen quantitative real-time PCR was performed on T cell RNA samples following reverse transcription via SuperScript II first-strand cDNA synthesis kit (Invitrogen, Carlsbad, Calif.). All PCR data was collected on an iCycler thermal cycler (Biorad, Hercules, Calif.). Primer sequences used for detecting stress response genes are listed below.

[1] = tested on: B220+ B cells or CD8+ T cells; assay: B cell and CD8+ T cell proliferation and function; format: cell-based, mouse; conditions: HF 1.25-40 nM titrated
Description: The non-specific effects of HF on B and CD8+ T cells were evaluated. B220+B cells or CD8+ T cells were isolated from the spleen and peripheral lymph nodes of C57B/6 mice. B cell proliferation and IL-6 production was induced by culturing the cells with LPS (0.5 μg/ml) for 4 days. The effects of HF on B cell function was determined by adding titrating amounts of HF (1.25 nM-40 nM) at the time of LPS stimulation. B cell proliferation was monitored by labeling cells with Carboxyfluorescein diacetate, succinimidyl ester (CFSE; 5 μM) prior to LPS stimulation and determining the rate of CFSE dilution after 4 days by flow cytometric analyses. LPS-induced IL-6 production by B cells was determined by intracellular staining on day 4, following PMA+Ionomycin+Brefeldin A re-stimulation as described above. For CD8+ T cell experiments, purified CD8+ T cells were labeled with CFSE as above and the T cells were activated using anti-CD3 (1 μg/ml) and anti-CD28 (1 μg/ml) antibodies. […] CD8+ T cell proliferation was determined by monitoring CFSE dilution on day 3-post activation; CD25 expression was determined by FACS staining on day 2 of culture; differentiation of CD8+ T cells into cytolytic T cells (CTL) was evaluated on day 4 by determining expression of IFNγ and granzyme B following PMA+Ionomycin+Brefeldin A re-stimulation. […]

SV-MES mesangial cells = assay: eIF2α phosphorylation in SV-MES mesangial cells (western blot); format: cell-based; conditions: 20 nM HF, 2 hours
Description: SV-MES mesangial cells were stimulated for 2 hours with DMSO, 20 nM MAZ1310 or 20 nM HF. Whole cell lysates were analyzed for expression of phosphorylated or total eIF2α or GCN2 by western blotting.
Western blotting: Whole cell lysates were generated from T cells activated for the indicated times. For STAT3 and Smad2/3 western blots cells were harvested, washed in PBS and lysed in 50 mM Tris, pH 7.4, 0.1% SDS, 1% Triton-×100, 140 mM NaCl, 1 mM EDTA, 1 mM EGTA supplemented with protease inhibitors tablets (Roche—Germany), 1 mM NaF and 1 mM Na3VO4. For eIF2α and ATF4 western blots, cells were harvested as above and lysed in 50 mM Tris, pH 7.4, 2% SDS, 20% glycerol and 2 mM EDTA supplemented with protease and phosphatase inhibitors as above. All lysates were cleared via centrifugation and 15-30 μg of protein was resolved by SDS-PAGE. Protein was transferred to nitrocellulose membranes, blocked and blotted using specific antibodies. Antibodies used for western blot analysis were anti-phospho-Smad2, anti-STAT3 (pY705), anti-STAT3, anti-eIF2α^pS51, anti-eIF2α, anti-GCN2^pT898, anti-GCN2 (all from cell signaling technology, Danvers, Mass.). Anti-ATF4/CREB2 and anti-β-actin were purchased from Santa Cruz biotechnology (Santa Cruz, Calif.). […]

[2] = human, in vivo; cited from earlier work

For `O=C(CC1NCCCC1O)Cn1cnc2cc(Br)c(Cl)cc2c1=O` (racemic) [HF, 7-bromo-6-chloro-3-[3-(3-hydroxy-2-piperidinyl)-2-oxopropyl]-4(3H)-quinazolinone], the “AAR-associated genes (Asns, Gpt2, eIF4Ebp1) mRNA by qPCR” value (CD4+ CD25− T cells) was “induced”, the “doses at which B and CD8+ T cell proliferation and function were profoundly impaired” value [1] was “greater than 20 nM” and the “doses with little or no effect on B and CD8+ T cell function or proliferation” value [1] was “lower than 10 nM”. For the same molecule, the “eIF2α phosphorylation in cultured fibroblasts” value (SV-MES mesangial cells) was “increased eIF2α phosphorylation” and the “HF in serum during topical treatment” value [2] was “undetectable in serum”.
